We go through five compounds from the NIST ThermoML archive (doi:10.1016/j.tca.2016.02.008).

Molecules are shown by their SMILES. ± gives the expanded uncertainty stated by the source.

The conditions of series [1]: for Normal melting temperature: DTA.
The nature of series [2]: Molar enthalpy of transition or fusion. The note with it: DSC.

For `CCCCCCCC/C=C\CCCCCCCC(=O)O` [(Z)-9-octadecenoic acid], the Normal melting temperature in series [1] (Crystal 1) is 13.70 ± 0.4 °C. Besides, the Triple point temperature in series [1] (Crystal 2, DSC) was 268.95 ± 0.8 K. The “Molar enthalpy of transition or fusion” value in series [2] (Crystal 1) was determined as 8.99 ± 0.454 kcal/mol; in series [2] (Crystal 2), 1.87 ± 0.1 kcal/mol.
As to `CCCCCCCCCCCCCCCCCC(=O)O` [octadecanoic acid], the Normal melting temperature in series [1] (Crystal) was found to be 70.60 ± 0.4 °C. The “Molar enthalpy of transition or fusion” value in series [2] (Crystal) worked out at 15.1 ± 0.741 kcal/mol.
For `CCCCC/C=C\C/C=C\CCCCCCCC(=O)O` [(Z,Z)-9,12-octadecadienoic acid], in that order: -5.40 ± 0.4 °C and 7.46 ± 0.382 kcal/mol.
For `CCCCCCCCCCCCCCCC(=O)O` [hexadecanoic acid], in that order: 63.10 ± 0.4 °C and 12.9 ± 0.645 kcal/mol.
`CC/C=C\C/C=C\C/C=C\CCCCCCCC(=O)O` [all-cis-9,12,15-octadecatrienoic acid]: in series [1] (Crystal), the Normal melting temperature was -10.90 ± 0.4 °C. Further, the “Molar enthalpy of transition or fusion” value in series [2] (Crystal) was 6.99 ± 0.359 kcal/mol.
